Several values for one entry are separate records, joined by “and”; a condition that tells them apart may be missing. Identical values can stand only once. Marks after values point to notes of the source that are not given here.
How the values were obtained:
Assay type in all cases: cell-based, human
P53 = test: qPCR gene expression of P53 in PACA2 cells; conditions: treatment with IC50 conc., negative control = 1
Protocol: (§1) Total RNA was isolated from breast and pancreatic cancer cell lines according to the manufacturer's protocol using RNeasy Mini Kit (Qiagen) supplemented with the DNaseI (Qiagen) digestion step. To digest DNA residues, the isolated total RNA was treated with one unit of RQ1 RNAse-free DNAse (Invitrogen), re-suspended in DEPC-treated water, and quantified using a spectrophotometer at 260 nm. The purity of total RNA was assessed by the 260/280 nm ratio, which was between 1.8 and 2.1. Moreover, RNA integrity was assured by ethidium bromide-stain analysis of 28S and 18S bands by formaldehyde-containing agarose gel electrophoresis. Complete poly(A)+ RNA isolated from breast and pancreatic cell lines was reverse-transcribed into cDNA in a total volume of 20 μl using the RevertAidTM First Strand cDNA Synthesis Kit (Fermentas). […] Subsequently, the reaction tubes containing RT preparations were flash-cooled in an ice chamber until used for cDNA amplification using a quantitative real-time polymerase chain reaction (qRT-PCR).
(§2) Determination of the breast and pancreatic cell line cDNA copy number was carried out using the StepOne™ Real-Time PCR system from Applied Biosystems (Thermo Fisher Scientific). […] The relative quantification of the target to the reference was performed using the 2^−ΔΔCT method (Yang et al., 2017).[51]

BID = test: qPCR gene expression of BID in PACA2 cells; conditions: treatment with IC50 conc., negative control = 1
Protocol: as §1, §2

CCND1 = test: qPCR gene expression of CCND1 in PACA2 cells; conditions: treatment with IC50 conc., negative control = 1
Protocol: as §1, §2

PACA2 cell lines = test: DNA fragmentation assay, PACA2; conditions: for DNA fragmentation, Inhibition (%): PACA2; for DNA fragmentation (%) M ± SEM: PACA2, 24 hours of exposure, −ve control 8.3 ± 0.31; for DNA fragmentation, Change: PACA2, change versus −ve control
Protocol: The DNA fragmentation assay in breast and pancreatic cancer cell lines was performed in accordance with the method of Helmy et al., 2022 (ref. [15]) with some modifications. Briefly, after 24 hours of exposure of breast and pancreatic cancer cell lines to the tested chalcone compounds in different Petri dishes (60 × 15 mm, Greiner), the cells were trypsinized, suspended, homogenized in 1 ml of medium, and centrifuged (10 min at 800 rpm). Low-molecular-weight genomic DNA was extracted as described in Yawata et al., 1998.[52] Approximately 1 × 10^6 cells were plated and treated with the tested substances in various treatments. All the cells (including floating cells) were harvested by trypsinization and washed with Dulbecco's phosphate-buffered saline. Cells were lysed with the lysis buffer containing 10 mM Tris (pH 7.4), 150 mM NaCl, 5 mM EDTA, and 0.5% Triton X-100 for 30 minutes on ice. Lysates were vortexed and cleared by centrifugation at 10 000 g for 20 min. Fragmented DNA in the supernatant was extracted with an equal volume of a neutral phenol/chloroform/isoamyl alcohol mixture (25 : 24 : 1) and analyzed electrophoretically on 2% agarose gels containing 0.1 μg ml^−1 ethidium bromide.

P21 = test: qPCR gene expression of P21 in MCF7 cells; conditions: treatment with IC50 conc., negative control = 1
Protocol: as §1, §2

CDK4 = test: qPCR gene expression of CDK4 in MCF7 cells; conditions: treatment with IC50 conc., negative control = 1
Protocol: as §1, §2

Bcl-2 = test: qPCR gene expression of Bcl-2 in MCF7 cells; conditions: treatment with IC50 conc., negative control = 1
Protocol: as §1, §2

SMILES	Gene expression P53 (P53) [fold change/GAPDH]	Gene expression BID (BID) [fold change/GAPDH]	Gene expression CCND1 (CCND1) [fold change/GAPDH]	DNA fragmentation, Inhibition (%) (PACA2 cell lines)	DNA fragmentation (%) M ± SEM (PACA2 cell lines)	DNA fragmentation, Change (PACA2 cell lines)	Gene expression P21 (P21) [fold change/GAPDH]	Gene expression CDK4 (CDK4) [fold change/GAPDH]	Gene expression Bcl-2 (Bcl-2) [fold change/GAPDH]	DNA fragmentation (%) M ± SEM (PACA2 cell lines; listed as PACA (+ve) control)
Cc1c(C(=O)C=Cc2nn(-c3ccccc3)cc2-c2ccc([N+](=O)[O-])cc2)c(-c2cccs2)nn1-c1ccc([N+](=O)[O-])cc1 [Compound 9e, 1-(5-Methyl-1-(4-nitrophenyl)-3-(thiophen-2-yl)-1H-pyrazol-4-yl)-3-(4-(4-nitrophenyl)-1-phenyl-1H-pyrazol-3-yl)prop-2-en-1-one]	3.89	0.48	0.64	24.45	24.2 ± 0.57% and 24.2 ± 0.57^a %	15.9				
Cc1nn(-c2ccccc2)c(C=CC(=O)c2c(-c3cccs3)nn(-c3ccc([N+](=O)[O-])cc3)c2C)c1Cl [Compound 7d, 3-(4-Chloro-3-methyl-1-phenyl-1H-pyrazol-5-yl)-1-(5-methyl-1-(4-nitrophenyl)-3-(thiophen-2-yl)-1H-pyrazol-4-yl)prop-2-en-1-one]							3.95	0.43	0.64	
COc1cccc2c1C(=O)c1c(O)c3c(c(O)c1C2=O)C[C@@](O)(C(=O)CO)C[C@@H]3O[C@H]1C[C@H](N)[C@H](O)[C@H](C)O1 [Doxorubicin, reference compound]	2.21	0.69	0.79	17.94	21.5 ± 0.46%	13.2	4.18	0.39	0.56	21.5 ± 0.46^a %

Reference: PMC11232109, “Synthesis, anticancer evaluation of novel hybrid pyrazole-based chalcones, molecular docking, DNA fragmentation, and gene expression: in vitro studies” (RSC Advances, 2024)
